# System: M17_3TAU(P301L) cells
# Experiment: Neuroblastoma tauopathy model: inhibition of TAU-induced cytotoxicity (LDH) after retinoic acid differentiation
# Type: cell-based
# Conditions: Homo sapiens, 168 h, inhibition of TAU-induced toxicity, 7 days retinoic acid, LDH readout
# Description: A TAU expression plasmid was constructed by sub-cloning the cDNA encoding for human TAU-P301L protein, wherein proline at position 301 is substituted by a leucine residue, into mammalian expression vector pcDNA3.1 resulting in the plasmid pcDNA3.1-TAUP301L. Plasmids pcDNA3.1 and pcDNA3.1-TAU P301L were transfected into human neuroblastoma cells (BE-M17; ATCC No. CRL2267™) using lipofectamine reagent and subsequently, independent clonal cell lines with the plasmids stably integrated into the genome were selected by antibiotic resistance selection (Geneticin (G418)), resulting in cell lines M17.pcDNA3 and M17_3TAUP301L. Expression of the TAUP301L gene in the M17_3TAUP301L cells was confirmed by Western blot analysis.
# Differentiation of the cells with RA leads to phosphorylation and subsequent aggregation of TAU, inducing a tauopathy in these cells. Cytotoxicity of cells was measured by quantification of lactate dehydrogenase (LDH) levels. In dead cells LDH is leaked out of the cells into the medium due to a loss of plasma-membrane integrity.
# Briefly, 3 days preceeding the experiment pre-cultures of M17.pcDNA3 and M17_3TAU(P301L) cells were prepared, starting from a stock culture, at a density of 50.000-100.000 cells/cm2 in detection medium (Optimem Reduced Serum without phenol red (Gibco, Cat. 31985-047) supplemented with 1% fetal calf serum (FCS), 1 mM sodium pyruvate, 1× non-essential amino acids (NEAR), 500 μg/ml G418 and 0.5× antibiotic/antimycotic (ABAM)). At the day of the experiment these precultures were diluted to ˜0, 1.106 cells/ml in detection medium without FCS and 60 μL of this suspension is dispensed per well into a 96-well microtiter plate. After 3 hours of incubation at 37° C./5% CO2 an equal volume of detection medium containing 2.5 μM RA was added and subsequently incubated for 7 days at 37° C./5% CO2. After 7 days, LDH activity was determined using the Promega Cytotox 96 Non-Radioactive cytotoxicity assay (Cat. G1780), according the manufacturer's instructions. Cytotoxicity is measured as the ratio of LDH increase in the supernatant divided by the LDH increase in the total cell suspension (sum of the LDH measured in cells and supernatant).
# The M17_3TAU(P301L) cell line makes it possible to assess the ability of novel compounds to inhibit TAU-induced cytotoxicity. […] Compounds were tested for their ability to hamper TAU-induced toxicity at different concentrations, ranging from low non-effective concentrations to high potent concentrations. Afterwards, the dose-dependent inhibition curve was used to calculate their EC50 (Table III).
row,SMILES,EC50 [nM]
1,"COc1ccc(CCN2CCN(c3nc(N4CCC(F)(F)CC4)ns3)CC2)cc1 [Example 1, 1-[3-(4,4-Difluoro-piperidin-1-yl)-[1,2,4]thiadiazol-5-yl]-4-[2-(4-methoxy-phenyl)-ethyl]-piperazine]",0.6
2,"FC1(F)CCN(c2nsc(N3CCN(CCc4ccc(Cl)cc4)CC3)n2)C1 [Example 3, 1-[2-(4-Chloro-phenyl)-ethyl]-4-[3-(3,3-difluoro-pyrrolidin-1-yl)-[1,2,4]thiadiazol-5-yl]-piperazine]",8.8
3,"FC1CCN(c2nsc(N3CCN(CCc4ccc(Cl)cc4)CC3)n2)CC1 [Example 4, 1-[2-(4-Chloro-phenyl)-ethyl]-4-[3-(4-fluoro-piperidin-1-yl)-[1,2,4]thiadiazol-5-yl]-piperazine]",84.6
4,"FC(F)(F)C1CCN(c2nsc(N3CCN(CCc4ccc(Cl)cc4)CC3)n2)CC1 [Example 5, 1-[2-(4-Chloro-phenyl)-ethyl]-4-[3-(4-trifluoromethyl-piperidin-1-yl)-[1,2,4]thiadiazol-5-yl]-piperazine]",47
5,"Clc1ccc(CCN2CCN(c3nc(N4CCCCC4)ns3)CC2)cc1 [Example 6, 1-[2-(4-Chloro-phenyl)-ethyl]-4-(3-piperidin-1-yl-[1,2,4]thiadiazol-5-yl)-piperazine]",64.1
6,"Clc1ccc(CCN2CCN(c3nc(NCC4CC4)ns3)CC2)cc1 [Example 7, (5-{4-[2-(4-Chloro-phenyl)-ethyl]-piperazin-1-yl}-[1,2,4]thiadiazol-3-yl)-cyclopropylmethyl-amine]",17.2
7,"Clc1ccc(CCN2CCN(c3nc(NC4CCOCC4)ns3)CC2)cc1 [Example 8, (5-{4-[2-(4-Chloro-phenyl)-ethyl]-piperazin-1-yl}-[1,2,4]thiadiazol-3-yl)-(tetrahydro-pyran-4-yl)-amine]",52.2
8,"Clc1ccc(CCN2CCN(c3nc(NC4CCCCC4)ns3)CC2)cc1 [Example 9, (5-{4-[2-(4-Chloro-phenyl)-ethyl]-piperazin-1-yl}-[1,2,4]thiadiazol-3-yl)-cyclohexyl-amine]",9.4
9,"Fc1ccc(CCN2CCN(c3nc(N4CCC(F)(F)CC4)ns3)CC2)cc1F [Example 10, 1-[2-(3,4-Difluoro-phenyl)-ethyl]-4-[3-(4,4-difluoro-piperidin-1-yl)-[1,2,4]thiadiazol-5-yl]-piperazine]",12.1
10,"Fc1ccc(CCN2CCN(c3nc(N4CCC(F)(F)C4)ns3)CC2)cc1F [Example 11, 1-[2-(3,4-Difluoro-phenyl)-ethyl]-4-[3-(3,3-difluoro-pyrrolidin-1-yl)-[1,2,4]thiadiazol-5-yl]-piperazine]",11.4
11,"Fc1ccc(CCN2CCN(c3nc(N4CCC(F)CC4)ns3)CC2)cc1F [Example 12, 1-[2-(3,4-Difluoro-phenyl)-ethyl]-4-[3-(4-fluoro-piperidin-1-yl)-[1,2,4]thiadiazol-5-yl]-piperazine]",33.3
12,"Fc1ccc(CCN2CCN(c3nc(N4CCC(C(F)(F)F)CC4)ns3)CC2)cc1F [Example 13, 1-[2-(3,4-Difluoro-phenyl)-ethyl]-4-[3-(4-trifluoromethyl-piperidin-1-yl)-[1,2,4]thiadiazol-5-yl]-piperazine]",15.3
13,"Fc1ccc(CCN2CCN(c3nc(N4CCCC4)ns3)CC2)cc1F [Example 14, 1-[2-(3,4-Difluoro-phenyl)-ethyl]-4-(3-pyrrolidin-1-yl-[1,2,4]thiadiazol-5-yl)-piperazine]",176
14,"Fc1ccc(CCN2CCN(c3nc(NCC4CC4)ns3)CC2)cc1F [Example 15, Cyclopropylmethyl-(5-{4-[2-(3,4-difluoro-phenyl)-ethyl]-piperazin-1-yl}-[1,2,4]thiadiazol-3-yl)-amine]",38.4
15,"Fc1ccc(CCN2CCN(c3nc(NC4CCOCC4)ns3)CC2)cc1F [Example 16, (5-{4-[2-(3,4-Difluoro-phenyl)-ethyl]-piperazin-1-yl}-[1,2,4]thiadiazol-3-yl)-(tetrahydro-pyran-4-yl)-amine]",34.5

# From patent US9808456B2, “Piperazine thiazole derivatives useful in the treatment of tauopathies such as Alzheimer's disease” (REMYND NV, priority 2011, dated 2017)
